Earlier results on 10 compounds are cited in patent publication US20230323509A1, “Weak Acid Lixiviants for Recovery of Alkaline Earth Metals” (LIXIVIA, INC., priority 2020, published 2023).

SMILES strings stand for the structures. Like-named read-outs stand apart in the source and are kept apart here.

For orientation: pKa means the pH at which an ionisable group is half protonated.

Setting [1] is: acid listed without dissociation step index.

`CC#CC(=O)O` [2-butynoic acid]: the pKa under setting [1] is given as 2.62.
As for `CCC(=O)C(=O)O` [2-oxobutanoic acid], the pKa under setting [1] is reported as 2.5.
As to `CC(O)CC(=O)O` (stereo not shown) [3-hydoxybutanoic acid], the pKa under setting [1] is 4.7.
On to `CCOCC(=O)O` [ethoxyacetic acid], for which the pKa under setting [1] is listed as 3.65.
`O=C(O)CCCC(=O)O` [glutaric acid]: the pKa (dissociation step (1)) is recorded as 4.32 and the pKa (dissociation step (2)) is on record as 5.42.
With `CC(C(=O)O)C(=O)O` [methylmalonic acid], under “dissociation step (1)”, the pKa was 3.07.
For the compound `CC(CC(=O)O)C(=O)O` (stereo not shown) [methylsuccinic acid], the pKa (dissociation step (1)) is recorded as 4.13 and the pKa (dissociation step (2)) is 5.64.
With `O=C(O)CC(=O)C(=O)O` [oxaloacetic acid], the pKa reads like this: (dissociation step (1)) 2.55; (dissociation step (2)) 4.37.
Turning to `CCCCC(=O)O` [pentanoic acid], the pKa under setting [1] was 4.83.
As for `O=c1[nH]c(=O)c2[nH]c(=O)[nH]c2[nH]1` [uric acid], under setting [1], the pKa is recorded as 3.89.
